{
  "source": "patent US7608642B2",
  "about": "“Wound and skin care compositions” (Kimberly-Clark Worldwide, Inc., priority 2002, dated 2009)",
  "key": {"[1]": {"system": "collagen production in the human skin fibroblast cell line", "test": "Collagen production in human skin fibroblasts (Takara EIA kit MK101, absorbance 450 nm)", "type": "cell-based", "conditions": "for Mean optical density (OD) at 450 nm, collagen production / Median optical density (OD) at 450 nm, collagen production: 48 hours, n=2", "method": "The cells were first grown in a 96-well assay system using Dulbecco's Modified Eagle's Medium (DMEM) with 10% fetal bovine serum (FBS) both purchased from Sigma Chemical Co, St. Louis, Mo. Serum-free DMEM was used as a control.\nThe assay was done by using the recommended 20 ul of the supernatant from each well of the 96-well plate. Standard buffer and stop solutions were freshly prepared before running the assay. 100 ul of antibody-POD conjugate solution (supplied with the kit) was added into the wells using pre antibody coated 96 well plate (supplied with the kit). 20 ul of standard and test solutions (from the other 96-well plate containing fibroblasts) were added to appropriate wells. Plate was mixed gently, sealed and incubated for three hrs. at 37° C.\nAfter incubation each well was washed carefully four times with PBS buffer (400 ul). All the wells were completely emptied at the end of washing from any liquid.\n100 ul of substrate solution (hydrogen peroxide and tetramethylbenzidine in a buffer solution, supplied with the kit) was added to each well and the plate was incubated for 15 minutes. At this point 100 ul of stop solution (freshly prepared 1N H2SO4) was added to each well in the same order as substrate. The plate was gently mixed and absorbance was read at 450 nm."}, "[2]": {"system": "human skin keratinocyte cell line (normal human epidermal keratinocytes, neonatal)", "test": "Proliferation of human skin keratinocytes (Cell Titer 96, absorbance 490 nm)", "type": "cell-based", "conditions": "for Cell proliferating activity on human keratinocytes (in words): 1×10^−4 M to 1×10^−6 M vs control; for Mean optical density (OD) at 490 nm, cell proliferation / Median optical density (OD) at 490 nm, cell proliferation: 48 hours, KBM, n=5", "method": "In addition, 100 μl of vehicle KBM was added to 5 wells as control. […] The spectrophotometric absorbance of each well was read at 490 nm."}, "[3]": {"system": "Swiss Albino mice", "test": "Wound healing, full thickness skin wounds (3 mm biopsy punch) in mice", "type": "in vivo, mouse", "conditions": "topical 5 μl of 0.2% solution, 5 doses Day 0-2, vs control (WFI)", "method": "Twenty, 12-week old Swiss Albino mice were anesthetized with a ketamine/acepromazine cocktail and subjected to four full thickness skin wounds on the dorsolateral surface. […] Jasmonic acid (100 mg) was dissolved in 2 ml ethanol. 200 μl of the resulting solution was then added to 4.8 ml of WFI. Four wounds were made on either side of the spinal column using a 3 mm biopsy punch. To make the wounds, the skin was first tented and the punch was driven through the tented skin to generate both wounds with a single stroke. The upper left quadrant wound site of the animal was assigned to receive the control solution (WFI). […] The wound sites were dosed 5 times (twice on Day 0, Day 1, and once on Day 2). All wounds were treated with 5 μl of test or control solutions. Wounds were allowed to absorb the solutions for 5 minutes before returning the animals to their cages for recovery. All the animals were housed singly. The in-life phase for the animals is 5 days. Each day the wounds on the mice were traced onto glass slides and measured using calipers accurate to the nearest 0.1 mm. Photographs of the wounds were also taken daily for the duration of the study to measure wound size. Means and the standard deviations of the wound diameters for each day were calculated for the healing profile. The effects of the test substances on wound healing were compared to the effects of the control (WFI)."}, "[4]": {"system": "healthy female volunteers", "test": "Dansyl chloride cell renewal study (stratum corneum renewal time)", "type": "in vivo, human", "conditions": "topical twice daily for two weeks", "text": "The stratum corneum renewal time is the time taken for the whole thickness of the stratum corneum to be exfoliated and replaced by new cells from the dividing epidermis. This renewal time is a fundamental indicator of skin health. […] See Jansen L H, Hojyo-Tomoko M T, Kligman A M., Improved fluorescence staining technique for estimating turnover of the human stratum corneum, Br J Dermatol., 90, 9-12, 1974; Ridge B D, Batt M D, Palmer H E, Jarrett A, The dansyl chloride technique for stratum corneum renewal as an indicator of changes in epidermal mitotic activity following topical treatment., Br J Dermatol., 118, 167-74, 1988; Grove G L, Kligman A M, Age-associated changes in human epidermal cell renewal., J Geron., 38, 137-142, 1983. The time required for the dye to disappear is therefore an indication of the turnover time of the stratum corneum. Therefore, any differences in the time required for the dye to disappear from treated and non-treated sites can be considered to be an expression of that product's ability to enhance epidermal renewal.\nA dansyl chloride cell renewal study was conducted in healthy female volunteers ranging from 43-64 years of age. The study consisted of a two-week treatment period during which time the products were applied topically twice daily, including on weekend days, to the test sites. The area of application was designated, approximately 5 cm×10 cm on the upper inner arm. The other arm served as a control with no product application. […] Eight females received jasmonic acid and seven females received gibberellic acid.\nThe time required for a marker dye to disappear was used as the measure of cell renewal rate."}, "[5]": {"system": "fibronectin production in the human skin fibroblast cell line", "test": "Fibronectin production in human skin fibroblasts (Takara EIA kit MK115, absorbance 450 nm)", "type": "cell-based", "conditions": "for Mean optical density (OD) at 450 nm, fibronectin production / Median optical density (OD) at 450 nm, fibronectin production: 48 hours, n=2", "method": "The cells were first grown in a 96-well assay system using Dulbecco's Modified Eagle's Medium (DMEM) with 10% fetal bovine serum (FBS) both purchased from Sigma Chemical Co, St. Louis, Mo. Serum-free DMEM was used as a control. […] The fibronectin assay was performed using the recommended 100 μl of the supernatant from each well of the 96-well plate. Standard buffer and stop solutions were freshly prepared before running the assay. A pre-antibody-coated 96 well plate (provided with the kit) was used to transfer the test samples and control. The plate was mixed, sealed and incubated for 1 hour at 37° C. All the wells were washed after removing sample solutions, 3 times (300 μl) with washing buffer. 100 ul of antibody-POD conjugate solution was added into the wells. Plate was mixed, sealed and incubated for one hour at 37° C. Solutions were removed and the wells were washed 3 times with washing buffer. All the wells were completely emptied at the end of washing from any liquid. 100 μl of substrate solution (hydrogen peroxide and tetramethylbenzidine in a buffered solution) was added to each well and the plate was incubated at room temperature for 15 minutes. 100 μl of stop solution (freshly prepared 1N H2SO4) was added to each well in the same order as substrate. The plate was gently mixed and absorbance was read at 450 nm."}, "[6]": {"conditions": "1×10^−4 M to 1×10^−6 M vs control"}},
  "note": "Several values for one entry are separate records, joined by “and”; a condition that tells them apart may be missing. Identical values can stand only once. Entries after “also recorded” stand apart in the source; their conditions may differ.",
  "data": [
    {"smiles": "C=C1C[C@]23C[C@@]1(O)CC[C@H]2[C@@]12C=C[C@H](O)[C@@](C)(C(=O)O1)[C@H]2[C@@H]3C(=O)O", "note": "[gibberellic acid]", "values": [
      {"measurement": "Stimulation of collagen production (in words)", "setting": "[1]; [6]", "result": "more profound, particularly at lower, rather than higher, concentrations; also recorded: lower concentrations of gibberellic acid had the most profound effect"},
      {"measurement": "Mean optical density (OD) at 450 nm, collagen production", "setting": "[1]; 1×10^−4 M", "result": 0.7780},
      {"measurement": "Median optical density (OD) at 450 nm, collagen production", "setting": "[1]; 1×10^−4 M", "result": 0.7780},
      {"measurement": "Mean optical density (OD) at 450 nm, collagen production", "setting": "[1]; 1×10^−5 M", "result": 0.8365},
      {"measurement": "Median optical density (OD) at 450 nm, collagen production", "setting": "[1]; 1×10^−5 M", "result": 0.8365},
      {"measurement": "Mean optical density (OD) at 450 nm, collagen production", "setting": "[1]; 1×10^−6 M", "result": 0.8630},
      {"measurement": "Median optical density (OD) at 450 nm, collagen production", "setting": "[1]; 1×10^−6 M", "result": 0.8630},
      {"measurement": "Cell proliferating activity on human keratinocytes (in words)", "setting": "[2]", "result": "all concentrations of gibberellic acid had a significant effect on cell growth"},
      {"measurement": "Cell proliferating activity on human keratinocytes (in words)", "setting": "[2]; listed as giberrellic acid", "result": "strong cell proliferating activity at all concentrations"},
      {"measurement": "Mean optical density (OD) at 490 nm, cell proliferation", "setting": "[2]; 1×10^−4 M", "result": 0.6512},
      {"measurement": "Median optical density (OD) at 490 nm, cell proliferation", "setting": "[2]; 1×10^−4 M", "result": 0.6510},
      {"measurement": "Mean optical density (OD) at 490 nm, cell proliferation", "setting": "[2]; 1×10^−5 M", "result": 0.8184},
      {"measurement": "Median optical density (OD) at 490 nm, cell proliferation", "setting": "[2]; 1×10^−5 M", "result": 0.8210},
      {"measurement": "Mean optical density (OD) at 490 nm, cell proliferation", "setting": "[2]; 1×10^−6 M", "result": 0.7854},
      {"measurement": "Median optical density (OD) at 490 nm, cell proliferation", "setting": "[2]; 1×10^−6 M", "result": 0.7900},
      {"measurement": "Effect on wound closure / wound healing (in words)", "setting": "[3]", "result": "accelerated wound healing during the 24 to 48 hrs following treatment"},
      {"measurement": "Skin irritation or redness", "setting": "[4]; 0.25% composition", "result": "no visible sign of any skin irritation or redness"},
      {"measurement": "Time for cell renewal, treated skin (RENEWAL)", "setting": "[4]; 0.25% in hyaluronic acid (0.5% aqueous solution), upper inner arm, individual patients, listed as GA", "result": "21 Days and 14 Days (2×) and 12 Days (2×) and 19 Days and 17 Days"},
      {"measurement": "Stimulation of fibronectin production (in words)", "setting": "[5]; [6]", "result": "effective for stimulating fibronectin production in human fibroblasts; also recorded: Both low and high concentrations of gibberellic acid stimulated fibronectin production"},
      {"measurement": "Mean optical density (OD) at 450 nm, fibronectin production", "setting": "[5]; 1×10^−4 M", "result": 0.2150},
      {"measurement": "Median optical density (OD) at 450 nm, fibronectin production", "setting": "[5]; 1×10^−4 M", "result": 0.2150},
      {"measurement": "Mean optical density (OD) at 450 nm, fibronectin production", "setting": "[5]; 1×10^−5 M", "result": 0.2090},
      {"measurement": "Median optical density (OD) at 450 nm, fibronectin production", "setting": "[5]; 1×10^−5 M", "result": 0.2090},
      {"measurement": "Mean optical density (OD) at 450 nm, fibronectin production", "setting": "[5]; 1×10^−6 M", "result": 0.2225},
      {"measurement": "Median optical density (OD) at 450 nm, fibronectin production", "setting": "[5]; 1×10^−6 M", "result": 0.2225}
    ]}
  ]
}
